Measurements: patent US11866515B2, “Hemiasterlin derivatives for conjugation and therapy” (priority 2015, dated 2024)

Assays:
[1] = test system: Target Negative Cell; experiment: Tumor cell line assay Example 2b, target negative cells; format: cell-based; conditions: hemiasterlin derivatives, 120 hrs
Protocol: (§1) Cytotoxicity effects of test compounds on target positive and target negative cells were measured with a cell proliferation assay. Tumor cell lines were obtained from American Type Culture Collection (ATCC) and maintained in Ham's F-12: high glucose DMEM (50:50) glucose medium supplemented with 10% heat-inactivated fetal bovine serum, 1% Penicillin/Streptomcin and 2 mmol/L L-glutamax. Target positive and negative cells (a total of 625 cells per well) were seeded in a volume of 25 μL in a 384-well flat bottom white polystyrene plate. The cells were allowed to adhere overnight at 37° C. in a CO2 incubator. ADC variants were formulated at 2× concentration in DMEM/F12 medium and filtered through MultiScreen HTS 96-Well Filter Plates. Filter sterilized ADCs were serial diluted (1:3) and 25 μL of diluted samples were added into each treatment wells. Plates were then cultured at 37° C. in a CO2 incubator for 120 hrs. For cell viability measurement, 30 μL of Cell Titer-Glo® reagent (Promega Corp) was added into each well, and plates processed as per product instructions. Relative luminescence was measured on an ENVISION® plate reader (Perkin-Elmer; Waltham, Mass.). Relative luminescence readings were converted to % viability using untreated cells as controls. Data was fitted with non-linear regression analysis, using log(inhibitor) vs. response, variable slope, 4 parameter fit equation using GraphPad Prism (GraphPad v 5.00, Software; San Diego, Calif.). Data was expressed as % relative cell viability vs. dose of ADC in nM.

[2] = test system: Target Positive Cell; experiment: Tumor cell line assay Example 2b, target positive cells; format: cell-based; conditions: hemiasterlin derivatives, 120 hrs
Protocol: as §1

[3] = test system: SUP-B15 (ALL); experiment: Cell binding assay anti-CD74, SUP-B15; conditions: Leukemia
Protocol: (§2) Cell lines were maintained in RPMI, high glucose (Cellgro-Mediatech; Manassas, Va.) supplemented with 20% heat-inactivated fetal bovine serum (Hyclone; Thermo Scientific; Waltham, Mass.), 2 mM glutamax (Invitrogen; Carlsbad, Calif.) and 1× Pencillin/streptomycin (Cellgro-Mediatech; Manassas, Va.). Cells were harvested and re-suspended in FACS buffer (DPBS buffer supplemented with 1% bovine serum albumin). A total of 200,000 cells per well were incubated on ice with serial dilutions of anti-CD74 lead SP7919 without conjugation for 60 minutes. Cells were washed twice with ice-cold FACS buffer and incubated with 5 ug/ml Alexa 647 labeled donkey anti-human IgG antibody (Jackson Immune-Research) on ice for another 60 mins. Unstained cells and cells stained with secondary antibody alone were used as controls. Samples were then washed twice using FACS buffer and analyzed using a BD FACS Canto system. Mean fluorescence intensities were fitted using non-linear regression analysis with one site specific binding equation on GraphPad Prism. Data was expressed as geometric mean fluorescent intensity vs. antibody concentration in nM.

[4] = test system: JVM-13 (CLL); experiment: Cell binding assay anti-CD74, JVM-13; conditions: Leukemia
Protocol: as §2

[5] = test system: RPMI-8226 (MM); experiment: Cell binding assay anti-CD74, RPMI-8226; conditions: Multiple Myeloma
Protocol: as §2

[6] = test system: SU-DHL-6 (NHL); experiment: Cell binding assay anti-CD74, SU-DHL-6; conditions: B-Lymphoma
Protocol: as §2

[7] = test system: RPMI-6666 (HL); experiment: Cell binding assay anti-CD74, RPMI-6666; conditions: B-Lymphoma
Protocol: as §2

[8] = test system: ARD (MM); experiment: Cell binding assay anti-CD74, ARD; conditions: Multiple Myeloma
Protocol: as §2

[9] = test system: BDCM (AML); experiment: Cell binding assay anti-CD74, BDCM; conditions: Leukemia
Protocol: as §2

Molecule | IC50 [1] [nM] | Target Negative Cell Span (%) [1] [%] | IC50 [2] [nM] | Target Positive Cell Span (%) [2] [%] | also measured
CN[C@H](C(=O)N[C@H](C(=O)N(C)[C@H](/C=C(\C)C(=O)O)C(C)C)C(C)(C)C)C(C)(C)c1cccc(NC(=O)OCc2ccc(NC(=O)[C@H](CCCNC(N)=O)NC(=O)[C@@H](NC(=O)CCC(=O)N3Cc4ccccc4C#Cc4ccccc43)C(C)C)cc2)c1 (single isomer, unassigned) [Compound 101a] | 2010 | 110 | 222 | 93 | –
CN[C@H](C(=O)NC(C(=O)N(C)[C@H](/C=C(\C)C(=O)O)C(C)C)C(C)(C)C)C(C)(C)c1cccc(NC(=O)OCc2cc(C)c(OC3OC(C(=O)O)C(O)C(O)C3O)c(NC(=O)CCNC(=O)CCCCC(=O)N3Cc4ccccc4C#Cc4ccccc43)c2)c1 (stereo partly drawn) [Compound 109a] | 2440 | 95 | 661 | 92 | –
CN[C@H](C(=O)N[C@H](C(=O)N(C)[C@H](/C=C(\C)C(=O)O)C(C)C)C(C)(C)C)C(C)(C)c1cccc(NC(=O)OCc2ccc(NC(=O)[C@H](C)NC(=O)[C@@H](NC(=O)CCCCC(=O)N3Cc4ccccc4C#Cc4ccccc43)C(C)C)cc2)c1 [Compound 110a] | 337 | 90 | 26 | 93 | –
CNC(C(=O)N[C@H](C(=O)N(C)[C@H](/C=C(\C)C(=O)O)C(C)C)C(C)(C)C)C(C)(C)c1cccc(NC(=O)[C@H](C)NC(=O)[C@@H](NC(=O)CCCCC(=O)N2Cc3ccccc3C#Cc3ccccc32)C(C)C)c1 (stereo partly drawn) [Compound 111a] | 717 | 91 | 65 | 92 | –
anti-CD74: anti-CD74 lead SP7919 without conjugation (antibody, V domains shown, non-natural residues) VH: QVQLVESGGGVVQPGRSLRLSCAASGFNFSDYGMHWVRQAPGKGLEWVAVIWYDGSISYYADSVKGRFTISRDNSKNTLYLQMNSLRAEDTAVYYCARGGTVEHGAVYGTDVWGQGTTVTVSS VL: DIQMTQSPSSVSASVGDRVTITCRASQGIGSWLAWYQQKPGKAPKLLIYAADRLQSGVPSRFSGSGSGTDFTLTISSLQPEDFATYYCQQYHTYPLTFGGGTKVEIK | – | – | – | – | Cell Binding anti-CD74 Bmax [3]: 680; Kd [3]: 3.5 nM; Cell Binding anti-CD74 Bmax [4]: 447; Kd [4]: 2.5 nM; Cell Binding anti-CD74 Bmax [5]: 119; Kd [5]: 3.6 nM; Cell Binding anti-CD74 Bmax [6]: 1565; Kd [6]: 2 nM; Cell Binding anti-CD74 Bmax [7]: 3879; Kd [7]: 2.3 nM; Cell Binding anti-CD74 Bmax [8]: 190; Kd [8]: 2.6 nM; Cell Binding anti-CD74 Bmax [9]: 3059; Kd [9]: 4.5 nM
